From ChEMBL document CHEMBL4837266, “Ugi Reaction Synthesis of Oxindole-Lactam Hybrids as Selective Butyrylcholinesterase Inhibitors” (ACS Med Chem Lett, 2021)

How the values were obtained:
[1] = biological target: T1, Amine oxidase [flavin-containing] A (Homo sapiens, UniProt P21397); experiment: Inhibition of recombinant MAO-A (unknown origin) assessed as reduction in 4-hydroxyquinoline level using kynuramine as a substrate at 1 uM incubated for 20 mins by discontinuous fluorimetric assay relative to control
T1 sequence (P21397 whole entry): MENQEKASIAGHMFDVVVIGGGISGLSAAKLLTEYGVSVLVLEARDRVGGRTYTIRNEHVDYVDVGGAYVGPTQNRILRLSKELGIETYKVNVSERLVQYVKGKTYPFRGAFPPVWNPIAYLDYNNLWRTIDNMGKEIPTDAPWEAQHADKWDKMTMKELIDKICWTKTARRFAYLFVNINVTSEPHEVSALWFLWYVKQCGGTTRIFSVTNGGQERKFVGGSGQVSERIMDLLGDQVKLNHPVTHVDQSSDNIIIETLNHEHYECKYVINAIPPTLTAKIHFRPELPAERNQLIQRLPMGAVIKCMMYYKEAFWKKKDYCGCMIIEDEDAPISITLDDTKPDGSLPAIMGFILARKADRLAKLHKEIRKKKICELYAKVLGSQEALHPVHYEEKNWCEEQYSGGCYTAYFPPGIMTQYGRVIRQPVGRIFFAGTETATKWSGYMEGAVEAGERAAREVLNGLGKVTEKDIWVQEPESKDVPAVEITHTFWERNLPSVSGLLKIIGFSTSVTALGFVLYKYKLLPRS

[2] = biological target: T2, Amine oxidase [flavin-containing] B (Homo sapiens, UniProt P27338); experiment: Inhibition of recombinant MAO-B (unknown origin) assessed as reduction in 4-hydroxyquinoline level using kynuramine as a substrate at 1 uM incubated for 20 mins by discontinuous fluorimetric assay relative to control; settings: read-out: INH
T2 sequence (P27338 whole entry): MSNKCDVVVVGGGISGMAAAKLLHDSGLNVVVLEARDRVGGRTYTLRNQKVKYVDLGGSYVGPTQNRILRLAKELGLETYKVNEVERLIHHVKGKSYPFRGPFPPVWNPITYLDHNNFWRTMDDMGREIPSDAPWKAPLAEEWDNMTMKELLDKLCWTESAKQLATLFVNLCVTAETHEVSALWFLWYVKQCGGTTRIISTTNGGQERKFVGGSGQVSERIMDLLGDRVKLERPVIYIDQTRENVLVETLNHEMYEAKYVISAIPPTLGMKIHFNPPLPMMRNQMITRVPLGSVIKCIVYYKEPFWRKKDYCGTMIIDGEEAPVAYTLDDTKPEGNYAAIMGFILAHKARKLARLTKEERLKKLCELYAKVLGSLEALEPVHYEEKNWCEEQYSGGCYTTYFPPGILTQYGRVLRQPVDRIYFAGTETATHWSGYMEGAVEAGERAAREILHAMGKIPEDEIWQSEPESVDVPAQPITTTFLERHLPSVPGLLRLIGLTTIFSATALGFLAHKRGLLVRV

Cholinesterase [3] = biological target: T3, Cholinesterase (Equus caballus, UniProt P81908); experiment: Inhibition of equine serum BuChE using S-butyrylthiocholine iodide as a substrate measured for 125 secs by DNTB reagent based Ellman's method; assay type: cell-free
Acetylcholinesterase [4] = biological target: T4, Acetylcholinesterase (Electrophorus electricus, UniProt O42275); experiment: Inhibition of electric eel AChE using […] as a substrate measured for 125 secs by DNTB reagent based Ellman's method
Acetylcholinesterase [5] = biological target: T4, Acetylcholinesterase; experiment: Inhibition of electric eel AChE using […] as a substrate by Cornish-Bowden plot analysis
Cholinesterase [6] = biological target: T3, Cholinesterase; experiment: Mixed type inhibition of equine serum BuChE using S-butyrylthiocholine iodide as a substrate by Cornish-Bowden plot analysis; assay type: cell-free

T4 sequence (O42275 whole entry): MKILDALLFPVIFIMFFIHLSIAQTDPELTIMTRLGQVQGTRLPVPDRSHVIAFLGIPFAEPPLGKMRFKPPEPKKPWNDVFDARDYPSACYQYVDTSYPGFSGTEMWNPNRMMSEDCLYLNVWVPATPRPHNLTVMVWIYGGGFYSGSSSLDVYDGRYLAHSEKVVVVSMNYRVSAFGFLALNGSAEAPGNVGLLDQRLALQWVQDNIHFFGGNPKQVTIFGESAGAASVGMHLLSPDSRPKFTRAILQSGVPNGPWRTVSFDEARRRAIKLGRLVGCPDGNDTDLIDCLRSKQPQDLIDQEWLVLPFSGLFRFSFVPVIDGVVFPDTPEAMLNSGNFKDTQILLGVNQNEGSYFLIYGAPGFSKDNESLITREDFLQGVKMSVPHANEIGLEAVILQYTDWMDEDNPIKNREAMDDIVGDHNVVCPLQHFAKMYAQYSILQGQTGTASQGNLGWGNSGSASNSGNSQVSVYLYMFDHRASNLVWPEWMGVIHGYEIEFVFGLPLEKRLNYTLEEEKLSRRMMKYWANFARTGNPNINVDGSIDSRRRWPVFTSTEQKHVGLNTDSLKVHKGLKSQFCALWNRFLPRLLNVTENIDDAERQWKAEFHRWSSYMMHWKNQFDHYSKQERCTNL
T3 sequence (P81908 whole entry): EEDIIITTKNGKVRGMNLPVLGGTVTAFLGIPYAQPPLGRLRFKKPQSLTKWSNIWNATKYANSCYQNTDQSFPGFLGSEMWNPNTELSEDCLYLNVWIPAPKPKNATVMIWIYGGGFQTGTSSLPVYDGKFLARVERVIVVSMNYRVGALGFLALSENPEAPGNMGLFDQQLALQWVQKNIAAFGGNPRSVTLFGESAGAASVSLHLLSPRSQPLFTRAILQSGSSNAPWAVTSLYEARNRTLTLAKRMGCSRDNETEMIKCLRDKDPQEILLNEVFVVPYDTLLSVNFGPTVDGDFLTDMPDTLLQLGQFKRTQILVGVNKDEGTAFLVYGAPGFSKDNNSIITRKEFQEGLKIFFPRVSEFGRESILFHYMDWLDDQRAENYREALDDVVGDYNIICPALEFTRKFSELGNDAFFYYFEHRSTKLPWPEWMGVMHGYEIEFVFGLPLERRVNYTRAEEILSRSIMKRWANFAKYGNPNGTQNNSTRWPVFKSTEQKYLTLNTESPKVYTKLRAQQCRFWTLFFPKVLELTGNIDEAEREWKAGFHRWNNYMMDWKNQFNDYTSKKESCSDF

Compound | IC50 (Cholinesterase [3]) | also measured
C#CCN1C(=O)C(C(=O)NCc2ccccc2)(N2CCCC2=O)c2ccccc21 (stereo not drawn) | > 100 µM | inhibition at 1 µM [1]: 13.2%; inhibition at 1 µM [2]: 6.1%
CC(C)(C)NC(=O)C1(N2CCC2=O)C(=O)Nc2c(C(F)(F)F)cccc21 (stereo not drawn) | > 100 µM | 
O=C1CCCN1C1(C(=O)NC2CCCCC2)C(=O)Nc2ccccc21 (stereo not drawn) | 44 µM | 
C#CCN1C(=O)C(C(=O)NC(C)(C)C)(N2CCC2=O)c2ccccc21 (stereo not drawn) |  | inhibition at 1 µM [1]: 5.9%; inhibition at 1 µM [2]: 7.4%
CC(C)(C)NC(=O)C1(N2CCC2=O)C(=O)N(Cc2ccccc2)c2ccccc21 (stereo not drawn) | 51 µM | 
CC(C)(C)NC(=O)C1(N2CCC2=O)C(=O)Nc2ccccc21 (stereo not drawn) | > 100 µM | 
CC(C)(C)NC(=O)C1(N2CCCC2=O)C(=O)Nc2ccc(I)cc21 (stereo not drawn) | 68 µM | 
CN1C(=O)C(C(=O)NC(C)(C)CC(C)(C)C)(N2CCCC2=O)c2ccccc21 (stereo not drawn) | 18 µM | 
Cc1cc(C)c2c(c1)C(C(=O)NC(C)(C)C)(N1CCC1=O)C(=O)N2 (stereo not drawn) | 57 µM | 
CC(C)(C)NC(=O)C1(N2CCCC2=O)C(=O)N(Cc2ccccc2)c2ccccc21 (stereo not drawn) | 32 µM | 
CC(C)(C)NC(=O)C1(N2CCCC2=O)C(=O)Nc2ccc([N+](=O)[O-])cc21 (stereo not drawn) | 94 µM | IC50 (Acetylcholinesterase [4]): 45 µM
CC(C)(C)NC(=O)C1(N2CCCC2=O)C(=O)Nc2ccc(Br)cc21 (stereo not drawn) | > 100 µM | 
CC(C)(C)CC(C)(C)NC(=O)C1(N2CCCC2=O)C(=O)Nc2ccccc21 (stereo not drawn) | 8.4 µM | Ki (Acetylcholinesterase [5]): 7.4 µM; Ki (Cholinesterase [6]): 15 µM; IC50 (Acetylcholinesterase [4]): > 100 µM
CC(C)(C)NC(=O)C1(N2CCC2=O)C(=O)N(c2ccccc2)c2ccccc21 (stereo not drawn) | 22 µM | 
CN1C(=O)C(C(=O)NC(C)(C)C)(N2CCCC2=O)c2ccccc21 (stereo not drawn) | > 100 µM | 
O=C1CCCN1C1(C(=O)NCc2ccccc2)C(=O)Nc2ccccc21 (stereo not drawn) | 71 µM | 
CC(C)(C)NC(=O)C1(N2CCC2=O)C(=O)Nc2ccc([N+](=O)[O-])cc21 (stereo not drawn) | > 100 µM | 
CC(C)(C)CC(C)(C)NC(=O)C1(N2CCC2=O)C(=O)Nc2ccccc21 (stereo not drawn) | 42 µM | 
CC(C)(C)CC(C)(C)NC(=O)C1(N2CCC2=O)C(=O)N(Cc2ccccc2)c2ccccc21 (stereo not drawn) | 1.8 µM | Ki (Acetylcholinesterase [5]): 1.8 µM; Ki (Cholinesterase [6]): 4.8 µM; IC50 (Acetylcholinesterase [4]): > 100 µM
O=C1CCN1C1(C(=O)NCc2ccccc2)C(=O)Nc2ccccc21 (stereo not drawn) | > 100 µM | IC50 (Acetylcholinesterase [4]): > 100 µM
CC(C)(C)NC(=O)C1(N2CCC2=O)C(=O)Nc2ccc(I)cc21 (stereo not drawn) | 80 µM | 
CC(C)(C)NC(=O)C1(N2CCCC2=O)C(=O)N(c2ccccc2)c2ccccc21 (stereo not drawn) | 6.2 µM | Ki (Acetylcholinesterase [5]): 6.1 µM; Ki (Cholinesterase [6]): 18 µM
Cc1cc(C)c2c(c1)C(C(=O)NC(C)(C)C)(N1CCCC1=O)C(=O)N2 (stereo not drawn) | > 100 µM | 
CC(C)(C)NC(=O)C1(N2CCCC2=O)C(=O)Nc2ccccc21 (stereo not drawn) | 54 µM | 
C#CCN1C(=O)C(C(=O)NCc2ccccc2)(N2CCC2=O)c2ccccc21 (stereo not drawn) | > 100 µM | inhibition at 1 µM [1]: 8.9%; inhibition at 1 µM [2]: 7.6%
CC(C)(C)NC(=O)C1(N2CCC2=O)C(=O)Nc2ccc(Br)cc21 (stereo not drawn) | > 100 µM | 
C#CCN(C)CCCOc1ccc(Cl)cc1Cl [CLORGILINE] |  | inhibition at 1 µM [1]: 100%
C[C@H](NCc1ccc(OCc2cccc(F)c2)cc1)C(N)=O [SAFINAMIDE] |  | inhibition at 1 µM [1]: -1.6%
